Measured values as given in paper PMC10391610, “Survivin prevents the polycomb repressor complex 2 from methylating histone 3 lysine 27” (iScience, 2023).

Legend:
survivin = target: T1, survivin (Homo sapiens, UniProt O15392); assay: PEPperCHIP peptide microarray, survivin interaction; format: binding; conditions: 1 μg/mL survivin; for Average FI (%): anti-His tag DyLight680 read-out, percentage of maximum fluorescence intensity units (64193) per peptide; for Average FI (%) / Integrated FI: 15-mer microarray peptides covering the residues; for Integrated FI: in units of the maximum FI per peptide; for survivin interaction / fluorescence on microarray (in words): peptide microarray
T1 construct: transferred to the survivin1-142 construct used in the present study; His8 tag (pHIS8 vector, thrombin-cleavable); made in house; host or cells: E. coli BL21(DE3) star
T1 sequence (O15392 whole entry): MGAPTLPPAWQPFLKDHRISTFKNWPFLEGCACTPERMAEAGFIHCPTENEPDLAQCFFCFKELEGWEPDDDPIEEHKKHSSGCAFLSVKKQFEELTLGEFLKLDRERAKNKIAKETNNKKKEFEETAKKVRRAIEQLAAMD
Source text: We were looking for potential direct interactions between survivin and short peptide sequences originating from PRC2 subunits and other proteins involved in histone modifications based on the in vivo results. Therefore, we created a peptide microarray of overlapping peptides obtained from EZH2, EED, SUZ12, and JARID2 to investigate how survivin interacts with the activity of the PRC2 complex. These subunits form the core of PRC2, and the interaction of survivin with the PRC2 molecular scaffold indicates a potentially disruptive role for survivin in PRC2 function. The fluorescence signal generated by labeled survivin is compared in Figure 2 as a function of position along the polypeptide chain of PRC2 subunits. Figure S1 depicts the raw fluorescence images. Moreover, the microarray fluorescence intensities projected on the three-dimensional structure of the PRC2 core complex are shown in Figure 3. The whole dataset is deposited at the Zenodo data base.
The location of survivin on the peptide microarray was clearly correlated with the amino acid content of the peptide at 1 μg/mL survivin concentration. When evaluating how accurate the predictions were, one should keep in mind that the primary and higher-order structures of the peptide were not at all considered in this analysis. Mislabeling peptides is possible for multiple reasons. The smallest fluorescence signal was chosen as the limit of detection and photon-counting errors may cause weak interactions to be undetected at low fluorescence intensities. Moreover, if the fluorescence intensity of experimental duplicates varied by more than 40%, a peptide was classified as non-interacting even if the lack of reproducibility is ambiguous evidence for the lack of interaction. […] Reducing the number of hidden layer perceptrons from 100 (the default value) to 9 had no effect on the classifier’s performance. Even a 15 amino acid peptide segment composition gives a high degree of uniqueness and highly scalable intensity for survivin-peptide interaction. Survivin has a non-globular structure with no deep binding pockets.
A peptide microarray was designed using the protein sequences from: Cdk1 (P06493), KAT2A/GCN5 (Q92830), SPI1/PU1 (P17947), SUZ12 (Q15022), EED (O75530), JADE3 (Q92613), DIABLO/SMAC (Q9NR28), BOREALIN (Q53HL2), INCENP (Q9NQS7), SGOL1 (Q5FBB7), SGOL2 (Q562F6), EZH2 (Q15910), JARID2 (Q92833), Histone H3 (P68431), AURORAKB (Q96GD4), JADE1 (Q6IE81), JTB (O76095), EVI5 (O60447), RAN (P62826), USP9X (Q93008), C-IAP1 (Q13490), STAT3 (P40763), BRUCE/APOLLON (Q9NR09), XPO1 (O14980), CDX2 (Q99626), Msx2 (P35548), RBM15 (Q96T37), PHF21A (Q96BD5), PHF8 (Q9UPP1), DIDO (Q9BTC0), JADE2 (Q9NQC1) and HASPIN (Q8TF76). The Uniprot ID is shown in parenthesis. The protein sequences were divided into 15 amino acid long peptides with a 10 amino acid overlap. To investigate background interactions with the protein-derived peptides that could interfere with the main assays, one of the PEPperCHIP Peptide Microarrays (PEPperPRINT Gmbh) was pre-staining with the secondary 6x His Tag Antibody DyLight680 antibody at a dilution of 1:1000 and with the monoclonal anti-HA (12CA5)-DyLight800 control antibody at a dilution of 1:1000. Subsequent incubation of other peptide microarray copies with survivin at a concentration of 1 μg/ml in incubation buffer was followed by staining with the secondary 6x His Tag Antibody DyLight680 antibody (Rockland Immunochemicals, Pottstown, PA, USA) and the monoclonal anti-HA (12CA5)-DyLight800 control antibody (Rockland Immunochemicals, Pottstown, PA, USA). The read-out was performed by scanning intensities of 7/7 (red/green). As an internal quality control, HA and His tag control peptides were stained simultaneously to confirm assay quality and to facilitate grid alignment for data quantification. The LI-COR Odyssey Imaging System was used for read-out, and the PepSlide Analyzer was used for quantification of spot intensities and peptide annotation. […]

[U-15N]-survivin = target: T2, [U-15N]-survivin (Homo sapiens, UniProt O15392); assay: NMR titration of [U-15N]-survivin with PRC2-derived peptides; format: binding; conditions: for NMR cpc (critical peptide concentration): 300 μM [U-15N]-survivin, 50 mM Tris, 150 mM NaCl, 1 mM DTT, pH 7.5, 298 K, Bayesian logistic fit (Table 3); for <L>: logistic function parameter L; for <L> / <b> / <k>: posterior mean (Table S10); for <b>: logistic function parameter b; for <k>: logistic function parameter k
T2 construct: transferred to the survivin1-142 construct used in the present study; His8 tag (pHIS8 vector, thrombin-cleavable); made in house; host or cells: E. coli BL21(DE3) star, M9 medium with 15NH4Cl
T2 sequence (O15392 whole entry): as above
Description: Uniformly [U] labeled [U-^15N] survivin was produced in H2O-based M9 medium[69] containing ^15NH4Cl as the sole nitrogen and in case of or [U-^15N,^13C] survivin D-(^13C)-glucose was additionally added as the sole carbon source, respectively (Sigma-Aldrich). Expression was induced with 0.5 mM IPTG and continued for 20–22 h at 15°C. Cell harvesting and subsequent purification followed the same protocol as for unlabeled survivin.
NMR measurements were performed on Bruker (Fällanden, Switzerland) AvanceIII 800 MHz spectrometers running Topspin 3.5 or 3.6, respectively, equipped with cryogenically cooled triple resonance probes. All NMR experiments were performed in NMR buffer (50 mM Tris, 150 mM NaCl, 1 mM DTT, pH 7.5) and at 298 K. The sequence-specific backbone assignment of survivin1-117 was taken from previously published assignment,[50] and transferred to the survivin1-142 construct used in the present study. Existing resonance assignments were confirmed, and additional resonances were assigned in a sequence-specific manner by the following experiments: [^1H,^15N]-TROSY HSQC,[70] BEST-TROSY-type HNCA and HNCO experiments.[71]
The peptides were synthetized and purified to 95% by Biomatik. The peptides were titrated into ^15N labelled survivin (0.3 mM). Standard 2D [^15N,^1H]-SOFAST-HMQC[72] experiments were recorded with inter-scan delays of 200 ms and 1025 x 256 complex points for the ^1H and ^15N dimensions, respectively, for the titrations of the different peptides with [U-^15N] survivin.
For the global analysis, the NMR signal strength was quantified by summing the 200 highest values in each 2D NMR spectrum to ensure that all peaks corresponding to the different amino acid residues in survivin are potentially covered. The titration curve was modelled using a Bayesian machine learning approach using the python library pymc3.[66] The logistic function was chosen due to computational convenience. The most important parameter of this function was coined “critical peptide concentration (cpc)” and its logarithm was modelled using a uniform a priori distribution between −10 and 1. p(log10cpc|lower=−10,upper=1)=1/upper−lower
The modelling errors related to the choice of function affect the analysis of different peptides similarly. Therefore, the relative magnitude of cpc in comparison is more reliable than the absolute magnitude of cpc itself. The concentration values were converted to dimensionless quantities by dividing with 1 mM and the NMR signal intensity was normalized for the concentration range studied.
A deterministic sigmoid (logistic) function was used to model signal decay as a function of peptide concentration. Additional a priori assumptions of the function parameters were the following: p(k|lower=−10,upper=10)=1/upper−lower p(L|lower=−3,upper=3)=1/upper−lower p(b|lower=−10,upper=10)=1/upper−lower
1000 posterior samples were collected in four parallel chains using the No-U-Turn sampling algorithm (NUTS) after 2000 tuning steps/chain.[83] The default sampling parameters were used except for “target accept” parameter, which was increased to 0.95. For the final analysis the 1000 samples from the four chains were merged to yield 4000 samples.

With “SQGEIRLLQSYVDADADENFYTCAW [EED128-152, PRC2-derived peptide, EED residues 128–152, synthesized by Biomatik]” the “Average FI (%)” value (survivin) was 10%, the “Integrated FI” value (survivin) was 0.31 and the “survivin interaction / fluorescence on microarray (in words)” value (“survivin interaction / fluorescence” below) (survivin) was “high survivin-associated fluorescence intensity”. The “NMR cpc (critical peptide concentration)” value ([U-15N]-survivin) was 0.0076 µM, the “<L>” value ([U-15N]-survivin) was -0.00 and the “<b>” value ([U-15N]-survivin) was 0.51. For the same sequence, the “<k>” value ([U-15N]-survivin) was -0.01.

For “PLRPQEMEVDSEDEKDPEWLREKTI [SUZ12_573-597, PRC2-derived peptide, SUZ12 residues 573–597, synthesized by Biomatik]”, the “Average FI (%)” value (survivin) was 20%, the “Integrated FI” value (survivin) was 0.6 and the “survivin interaction / fluorescence” value (survivin) was “high survivin-associated fluorescence intensity”. The “NMR cpc (critical peptide concentration)” value ([U-15N]-survivin) was 0.0066 µM, the “<L>” value ([U-15N]-survivin) was -0.59 and the “<b>” value ([U-15N]-survivin) was 0.87. For the same sequence, the “<k>” value ([U-15N]-survivin) was 0.99.

For “PNSMVYFGSSQDEEEVEEEDDETED [JARID2_170-194, PRC2-derived peptide, JARID2 residues 170–194, synthesized by Biomatik]”, the “Average FI (%)” value (survivin) was 100%, the “Integrated FI” value (survivin) was 3.00 and the “survivin interaction / fluorescence” value (survivin) was “high survivin-associated fluorescence intensity”. For the same sequence, the “NMR cpc (critical peptide concentration)” value ([U-15N]-survivin) was 0.0085 µM, the “<L>” value ([U-15N]-survivin) was -0.53 and the “<b>” value ([U-15N]-survivin) was 0.79. The “<k>” value ([U-15N]-survivin) was 1.25.
